Experimental data as given in patent US9486506B2 (Novo Nordisk A/S, priority 2011, dated 2016).
Numbered stars: 1 amine (or outer) side, 2 acyl side, 3 side chain; on linkers, the order of the positions; unused ones are H or OH. Side chains are listed from the residue outwards. Peptide text beside a SMILES is read from it. * marks the point of attachment. C18 diacid = O=C(O)CCCCCCCCCCCCCCCCC(=O)*; C16 diacid = O=C(O)CCCCCCCCCCCCCCC(=O)*; γGlu = O=C(O)[C@H](CCC(=O)[*:2])N[*:1]; AEEA = NCCOCCOCC(=O)O

Legend:
glucagon receptor = target: T1, glucagon receptor (Homo sapiens, UniProt P47871); assay: Assay (I) Glucagon activity (cAMP biosensor, FLIPR); assay type: cell-based
T1 construct: expressed in transfected cells
T1 sequence (P47871 26-477): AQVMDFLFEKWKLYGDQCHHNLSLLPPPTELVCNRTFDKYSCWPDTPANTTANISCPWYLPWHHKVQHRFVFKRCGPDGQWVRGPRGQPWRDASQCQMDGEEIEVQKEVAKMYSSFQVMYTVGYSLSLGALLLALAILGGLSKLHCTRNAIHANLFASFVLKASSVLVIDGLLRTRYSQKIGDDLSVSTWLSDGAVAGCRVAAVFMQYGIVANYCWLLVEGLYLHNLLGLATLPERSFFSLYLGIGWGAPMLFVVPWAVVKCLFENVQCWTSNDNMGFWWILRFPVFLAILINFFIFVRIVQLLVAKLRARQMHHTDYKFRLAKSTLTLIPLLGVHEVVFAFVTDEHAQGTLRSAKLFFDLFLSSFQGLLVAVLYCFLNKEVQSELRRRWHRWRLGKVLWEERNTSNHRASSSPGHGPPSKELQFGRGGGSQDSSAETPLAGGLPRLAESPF

[1] = Assay (X) Chemical stability assessment by RP-UPLC; assay type: physicochemical; settings: pH 8.15, 14 days at 37° C. vs 5° C., 333 μM

Compound | EC50 (glucagon receptor) [nM] | Chemical stability [Purity loss/14 days 37 C.] [1] [%]
CC(C)C[C@H](NC(=O)[C@H](Cc1c[nH]c2ccccc12)NC(=O)[C@H](CCCCNC(=O)CC[C@H](NC(=O)CC[C@H](NC(=O)COCCOCCNC(=O)COCCOCCNC(=O)CC[C@H](NC(=O)CCCCCCCCCCCCCCCCC(=O)O)C(=O)O)C(=O)O)C(=O)O)NC(=O)[C@@H](NC(=O)[C@H](Cc1ccccc1)NC(=O)[C@H](CC(=O)O)NC(=O)[C@H](CCC(N)=O)NC(=O)[C@H](C)NC(=O)[C@H](CCCNC(=N)N)NC(=O)[C@H](CCCNC(=N)N)NC(=O)[C@@H](NC(=O)[C@H](CC(=O)O)NC(=O)[C@H](CC(C)C)NC(=O)[C@H](Cc1ccc(O)cc1)NC(=O)[C@H](CCCCN)NC(=O)[C@H](CO)NC(=O)[C@H](Cc1ccc(O)cc1)NC(=O)[C@H](CC(=O)O)NC(=O)[C@H](CO)NC(=O)[C@@H](NC(=O)[C@H](Cc1ccccc1)NC(=O)[C@@H](NC(=O)CNC(=O)[C@H](CCC(N)=O)NC(=O)[C@H](CO)NC(=O)[C@@H](N)Cc1c[nH]cn1)[C@@H](C)O)[C@@H](C)O)[C@@H](C)O)C(C)C)C(=O)N[C@@H](CC(C)C)C(=O)N[C@@H](CO)C(=O)N[C@H](C(=O)O)[C@@H](C)O [Example 12, N^ε24-[(4S)-4-carboxy-4-[[(4S)-4-carboxy-4-[[2-[2-[2-[[2-[2-[2-[[(4S)-4-carboxy-4-(17-carboxyheptadecanoylamino)butanoyl]amino]ethoxy]ethoxy]acetyl]amino]ethoxy]ethoxy]acetyl]amino]butanoyl]amino]butanoyl]-[Thr^16,Lys^24,Leu^27,Ser^28]-Glucagon] | 0.075 | 7.0
CC(C)C[C@H](NC(=O)[C@H](Cc1ccc(O)cc1)NC(=O)[C@H](CCCNC(=N)N)NC(=O)[C@H](CO)NC(=O)[C@H](Cc1ccc(O)cc1)NC(=O)[C@H](CC(=O)O)NC(=O)[C@H](CO)NC(=O)[C@@H](NC(=O)[C@H](Cc1ccccc1)NC(=O)[C@@H](NC(=O)CNC(=O)[C@H](CCC(N)=O)NC(=O)[C@H](CO)NC(=O)[C@@H](N)Cc1c[nH]cn1)[C@@H](C)O)[C@@H](C)O)C(=O)N[C@@H](CCC(=O)O)C(=O)N[C@@H](CO)C(=O)N[C@@H](CCCNC(=N)N)C(=O)N[C@@H](CCCNC(=N)N)C(=O)N[C@@H](C)C(=O)N[C@@H](CCC(N)=O)C(=O)N[C@@H](CCC(=O)O)C(=O)N[C@@H](Cc1ccccc1)C(=O)N[C@H](C(=O)N[C@@H](CCCCNC(=O)CC[C@H](NC(=O)CC[C@H](NC(=O)CC[C@H](NC(=O)CC[C@H](NC(=O)CCCCCCCCCCCCCCCCC(=O)O)C(=O)O)C(=O)O)C(=O)O)C(=O)O)C(=O)N[C@@H](Cc1c[nH]c2ccccc12)C(=O)N[C@@H](CC(C)C)C(=O)N[C@@H](CC(C)C)C(=O)N[C@@H](CO)C(=O)N[C@H](C(=O)O)[C@@H](C)O)C(C)C [Example 51, N^ε24-[(4S)-4-carboxy-4-[[(4S)-4-carboxy-4-[[(4S)-4-carboxy-4-[[(4S)-4-carboxy-4-(17-carboxyheptadecanoylamino)butanoyl]amino]butanoyl]amino]butanoyl]amino]butanoyl]-[Arg12,Glu15,Glu21,Lys24,Leu27,Ser28]-Glucagon] (H-HSQGTFTSDYSRYLESRRAQEFVK([γGlu-γGlu-γGlu-γGlu-C18 diacid])WLLST-OH) | 0.148 | 5.7
CC(C)C[C@H](NC(=O)[C@H](Cc1ccc(O)cc1)NC(=O)[C@H](CCCCN)NC(=O)[C@H](CO)NC(=O)[C@H](Cc1ccc(O)cc1)NC(=O)[C@H](CC(=O)O)NC(=O)[C@H](CO)NC(=O)[C@@H](NC(=O)[C@H](Cc1ccccc1)NC(=O)[C@@H](NC(=O)CNC(=O)[C@H](CCC(N)=O)NC(=O)[C@H](CO)NC(=O)[C@@H](N)Cc1c[nH]cn1)[C@@H](C)O)[C@@H](C)O)C(=O)N[C@@H](CC(=O)O)C(=O)N[C@@H](C)C(=O)N[C@@H](CCCNC(=N)N)C(=O)N[C@@H](CCCNC(=N)N)C(=O)N[C@@H](C)C(=O)N[C@@H](CCC(N)=O)C(=O)N[C@@H](CC(=O)O)C(=O)N[C@@H](Cc1ccccc1)C(=O)N[C@H](C(=O)N[C@@H](CCCCNC(=O)CC[C@H](NC(=O)CC[C@H](NC(=O)COCCOCCNC(=O)COCCOCCNC(=O)CC[C@H](NC(=O)CCCCCCCCCCCCCCCCC(=O)O)C(=O)O)C(=O)O)C(=O)O)C(=O)N[C@@H](Cc1c[nH]c2ccccc12)C(=O)N[C@@H](CC(C)C)C(=O)N[C@@H](CCC(=O)O)C(=O)N[C@@H](CO)C(=O)N[C@H](C(=O)O)[C@@H](C)O)C(C)C [Example 57, N^ε24-[(4S)-4-carboxy-4-[[(4S)-4-carboxy-4-[[2-[2-[2-[[2-[2-[2-[[(4S)-4-carboxy-4-(17-carboxyheptadecanoylamino)butanoyl]amino]ethoxy]ethoxy]acetyl]amino]ethoxy]ethoxy]acetyl]amino]butanoyl]amino]butanoyl]-[Ala16,Lys24,Glu27,Ser28]-Glucagon] | 0.07 | 7.9
CC(C)C[C@H](NC(=O)[C@H](Cc1ccc(O)cc1)NC(=O)[C@H](CCCCN)NC(=O)[C@H](CO)NC(=O)[C@H](Cc1ccc(O)cc1)NC(=O)[C@H](CC(=O)O)NC(=O)[C@H](CO)NC(=O)[C@@H](NC(=O)[C@H](Cc1ccccc1)NC(=O)[C@@H](NC(=O)CNC(=O)[C@H](CCC(N)=O)NC(=O)[C@H](CO)NC(=O)[C@@H](N)Cc1c[nH]cn1)[C@@H](C)O)[C@@H](C)O)C(=O)N[C@@H](CCC(=O)O)C(=O)N[C@@H](CO)C(=O)N[C@@H](CCCNC(=N)N)C(=O)N[C@@H](CCCNC(=N)N)C(=O)N[C@@H](C)C(=O)N[C@@H](CCC(N)=O)C(=O)N[C@@H](CC(=O)O)C(=O)N[C@@H](Cc1ccccc1)C(=O)N[C@H](C(=O)N[C@@H](CCCCNC(=O)CC[C@H](NC(=O)CC[C@H](NC(=O)COCCOCCNC(=O)CC[C@H](NC(=O)CCCCCCCCCCCCCCCCC(=O)O)C(=O)O)C(=O)O)C(=O)O)C(=O)N[C@@H](Cc1c[nH]c2ccccc12)C(=O)N[C@@H](CC(C)C)C(=O)N[C@@H](CC(C)C)C(=O)N[C@@H](CO)C(=O)N[C@H](C(=O)O)[C@@H](C)O)C(C)C [Example 1, N^ε24-[(4S)-4-carboxy-4-[[(4S)-4-carboxy-4-[[2-[2-[2-[[(4S)-4-carboxy-4-(17-carboxyheptadecanoylamino)butanoyl]amino]ethoxy]ethoxy]acetyl]amino]butanoyl]amino]butanoyl]-[Glu^15,Lys^24,Leu^27,Ser^28]-Glucagon] | 0.28 | 7.6
CC(C)C[C@H](NC(=O)[C@H](CC(=O)O)NC(=O)[C@H](CC(C)C)NC(=O)[C@H](Cc1ccc(O)cc1)NC(=O)[C@H](CCCNC(=N)N)NC(=O)[C@H](CO)NC(=O)[C@H](Cc1ccc(O)cc1)NC(=O)[C@H](CC(=O)O)NC(=O)[C@H](CO)NC(=O)[C@@H](NC(=O)[C@H](Cc1ccccc1)NC(=O)[C@@H](NC(=O)CNC(=O)[C@H](CCC(N)=O)NC(=O)[C@H](CO)NC(=O)[C@@H](N)Cc1c[nH]cn1)[C@@H](C)O)[C@@H](C)O)C(=O)N[C@@H](CCCNC(=N)N)C(=O)N[C@@H](CCCNC(=N)N)C(=O)N[C@@H](C)C(=O)N[C@@H](CCC(N)=O)C(=O)N[C@@H](CC(=O)O)C(=O)N[C@@H](Cc1ccccc1)C(=O)N[C@H](C(=O)N[C@@H](CCCCNC(=O)CC[C@H](NC(=O)CC[C@H](NC(=O)COCCOCCNC(=O)COCCOCCNC(=O)CC[C@H](NC(=O)CCCCCCCCCCCCCCCCC(=O)O)C(=O)O)C(=O)O)C(=O)O)C(=O)N[C@@H](Cc1c[nH]c2ccccc12)C(=O)N[C@@H](CC(C)C)C(=O)N[C@@H](CC(C)C)C(=O)N[C@H](C(=O)N[C@H](C(=O)O)[C@@H](C)O)[C@@H](C)O)C(C)C [Example 19, N^ε24-[(4S)-4-carboxy-4-[[(4S)-4-carboxy-4-[[2-[2-[2-[[2-[2-[2-[[(4S)-4-carboxy-4-(17-carboxyheptadecanoylamino)butanoyl]amino]ethoxy]ethoxy]acetyl]amino]ethoxy]ethoxy]acetyl]amino]butanoyl]amino]butanoyl]-[Arg^12,Leu^16,Lys^24,Leu^27,Thr^28]-Glucagon] (H-HSQGTFTSDYSRYLDLRRAQDFVK([γGlu-γGlu-AEEA-AEEA-γGlu-C18 diacid])WLLTT-OH) | 0.754 | 4.3
CC(C)C[C@H](NC(=O)[C@H](Cc1ccc(O)cc1)NC(=O)[C@H](CCCNC(=N)N)NC(=O)[C@H](CO)NC(=O)[C@H](Cc1ccc(O)cc1)NC(=O)[C@H](CC(=O)O)NC(=O)[C@H](CO)NC(=O)[C@@H](NC(=O)[C@H](Cc1ccccc1)NC(=O)[C@@H](NC(=O)CNC(=O)[C@H](CCC(N)=O)NC(=O)[C@H](CO)NC(=O)[C@@H](N)Cc1c[nH]cn1)[C@@H](C)O)[C@@H](C)O)C(=O)N[C@@H](CCC(=O)O)C(=O)N[C@@H](CO)C(=O)N[C@@H](CCCNC(=N)N)C(=O)N[C@@H](CCCNC(=N)N)C(=O)N[C@@H](C)C(=O)N[C@@H](CCC(N)=O)C(=O)N[C@@H](CC(=O)O)C(=O)N[C@@H](Cc1ccccc1)C(=O)N[C@H](C(=O)N[C@@H](CCCCNC(=O)CC[C@H](NC(=O)CC[C@H](NC(=O)COCCOCCNC(=O)COCCOCCNC(=O)CC[C@H](NC(=O)CCCCCCCCCCCCCCC(=O)O)C(=O)O)C(=O)O)C(=O)O)C(=O)N[C@@H](Cc1c[nH]c2ccccc12)C(=O)N[C@@H](CC(C)C)C(=O)N[C@@H](CC(C)C)C(=O)N[C@@H](CO)C(=O)N[C@H](C(=O)O)[C@@H](C)O)C(C)C [Example 70, N^ε24-[(4S)-4-carboxy-4-[[(4S)-4-carboxy-4-[[2-[2-[2-[[2-[2-[2-[[(4S)-4-carboxy-4-(15-carboxypentadecanoylamino)butanoyl]amino]ethoxy]ethoxy]acetyl]amino]ethoxy]ethoxy]acetyl]amino]butanoyl]amino]butanoyl]-[Arg12,Glu15,Lys24,Leu27,Ser28]-Glucagon] (H-HSQGTFTSDYSRYLESRRAQDFVK([γGlu-γGlu-AEEA-AEEA-γGlu-C16 diacid])WLLST-OH) | 0.14 | 7.6
